Results: patent US5593970A, “Heterocyclic anthracycline analogs” (priority 1994, dated 1997)
Structures can show the parent of a compound that is named as a salt.

How the values were obtained:
Assay in all cases: Microculture tetrazolium assay
Assay type in all cases: cell-based
[1] = test system: SKOV3; conditions: Homo sapiens, SK-OV-3, SKOV3; read-out: IC50
[2] = test system: SKVLB; conditions: for IC50: SKVLB, read-out: IC50; for VLB/OV3: IC50 ratio SKVLB/SKOV3
[3] = test system: T47D; conditions: Homo sapiens, read-out: IC50
[4] = test system: LOX; conditions: read-out: IC50
[5] = test system: HT29; conditions: Homo sapiens, HT-29, HT29; read-out: IC50

Structure (SMILES) | IC50 [1] | IC50 [2] | IC50 [3] | IC50 [4] | IC50 [5] | VLB/OV3 [2]
CC[C@@H]1CO[C@@H](O[C@H]2C[C@H](NC(=O)C(F)(F)F)[C@H](O)[C@H](C)O2)C2=C1C(=O)c1c(cc3ccccc3c1O)C2=O (mixture of isomers) [BCH-2084, (1'S, 1S,4S) and (1'S,1R,4R)-5,12-dioxo-4-ethyl-6-hydroxy-1-(2',3',6'-trideoxy-3'-trifluoroacetamido-L-lyxohexopyranose)-3,4,5,12-tetrahydroanthraceno-[2,3-c]-pyran] | 4.2 µM | 12 µM | 5.6 µM | 5.2 µM | 5.8 µM | –
CC[C@H]1CO[C@H](O[C@H]2C[C@H](N)[C@H](O)[C@H](C)O2)c2c(O)c3c(c(O)c21)C(=O)c1ccccc1C3=O (mixture of isomers) [BCH-2085, (1'S,1S,4S) and (1'S,1R,4R)-5,12-dihydroxy-4-ethyl-1-(2',3',6'-trideoxy-3'-amino-L-lyxohexopyranose)-1,2,3,4-tetrahydro-(2-oxygen)-naphthacene-6,11-dione-hydrochloride] | 1.1 µM | 3.4 µM | 1.6 µM | 0.58 µM | 0.8 µM | –
CC(=O)CC1CC2=C(C(=O)c3cc4ccccc4c(O)c3C2=O)C(O[C@H]2C[C@H](NC(=O)C(F)(F)F)[C@H](O)[C@H](C)O2)O1 (mixture of isomers) [BCH-2097, (1'S,1R,3S) and (1'S,1S,3R)(6-hydroxy-1-(2',3',6'-trideoxy-3'-trifluoroacetamido-4'-hydroxy-L-lyxohexopyranose)-5,12-dioxo-3,4,5,12-tetrahydroanthraceno[2,3-c]pyran-3-yl)propanone] | 6.06 µM | 5.36 µM | 4.45 µM | 2.51 µM | 2.64 µM | 0.88
CC(C)C(=O)C1Cc2c(O)c3c(c(O)c2C(O[C@H]2C[C@H](N)[C@H](O)[C@H](C)O2)O1)C(=O)c1ccccc1C3=O (mixture of isomers) [BCH-2120, (1'S, 1R,3S) and (1'S, 1S ,3R)-isopropyl-[5,12-dihydroxy-6,11-dioxo-1-(2',3',6'-trideoxy-3'-amino-L-lyxohexopyranose)-3,4,6,11-tetrahydroanthraceno-[2,3-c]-pyran-3-yl]-ketone hydrochloride] | 0.432 µM | 0.398 µM | 0.314 µM | 0.143 µM | 0.168 µM | 0.92
C[C@@H]1O[C@@H](OC2OC(CC(=O)C3CC3)CC3=C2C(=O)c2cc4ccccc4c(O)c2C3=O)C[C@H](NC(=O)C(F)(F)F)C1O (mixture of isomers) [BCH-2133, (1'S,1S,3R) and (1'S,1R,3S)-cyclopropyl-(6-hydroxy-1-((2',3',6'-trideoxy-3'-trifluoroacetamido-4'-hydroxy-L-arabino-hexopyranose)-5,10-dioxo-3,4,5,12-tetrahydronaphto-[2,3-c]pyran-3-yl)methylene)] | 7.02 µM | 1.6 µM | 3.62 µM | 2.49 µM | 3.68 µM | 0.23
COC(=O)[C@@H]1CC2=C(C(=O)c3c(cc4ccccc4c3O)C2=O)[C@@H](O)O1 (relative stereo) [BCH-703, Methyl(1,11-dihydroxy-5,12-dioxo-3,4,5,12-tetrahydroanthraceno[2,3-c]pyran-3-yl)formate] | 24.8 µM | 18.5 µM | 16.4 µM | 12.8 µM | 7.38 µM | 0.75
CC(=O)[C@@H]1CC2=C(C(=O)c3c(cc4ccccc4c3O)C2=O)[C@@H](O)O1 (relative stereo) [BCH-722] | 19.2 µM | 83 µM | 12 µM | 43.7 µM | 7.11 µM | 4.32
CO[C@H]1S[C@H](CO)CC2=C1C(=O)c1cc3ccccc3c(O)c1C2=O (relative stereo) [BCH-725] | 3.46 µM | 3.99 µM | 4.57 µM | 1.93 µM | 2.49 µM | 1.15
